The pIC50 is the negative decadic logarithm of the IC50, by convention in mol/L. For orientation: viability, T/C means the ratio of treated to control.

The assay relates to 926638-142-R-J1-PDC complex spheroid viability. The experiment in a line: Anticancer human tumor 926638-142-R-J1-PDC patient-derived endometrial carcinoma cell line growth inhibition [POLQ]. As to conditions: for viability, T/C: stronger effect = lower value. As for the experimental part:
Multicellular complex tumor spheroid response to Polymerase (POL) inhibitors (novobiocin, ART-558, RP6685) in combination with a variety of drugs and investigational agents in selected tumor cell lines
The POL inhibitors (novobiocin, ART-558, and RP6685) were evaluated both individually and in combination with standard of care and investigational anticancer small molecules within a complex spheroid model of solid tumors. . Complex spheroids include a stromal component modeled by human endothelial cells (HUVEC) and fibroblasts modeled by human mesenchymal stem cells (MSCs). The concentration ranges selected for each drug and investigational agent were based upon clinically achievable concentrations if the clinical Cmax of the agent was known.
Compounds. The drugs and investigational agents: novobiocin (NSC847541), ART-558 (NSC835418), RP-6685 (NSC848927), peposertib (NSC802822), ceralasertib (NSC780249), elimusertib (NSC800525), camonsertib (NSC841442), AZD-1390 (NSC803789), olaparib (NSC753686), talazoparib (NSC767125), rucaparib (NSC756644), sotorasib (NSC818433), MRTX-1133 (NSC836407), SN-38 (NSC673596), topotecan (NSC609699), epotoside (NSC141540), doxorubicin (NSC123127), gemcitabine (NSC613327), 5-fluorouracil (NSC19893), paclitaxel (NSC125973), vemurafenib (NSC761431), MSA-2 (NSC828583), SN-011 (NSC837082), adavosertib (NSC754352), prexasertib (NSC758257), carboplatin (NSC241240) and oxaliplatin (NSC266046), were obtained from the National Cancer Institute (NCI) Developmental Therapeutics Program Chemical Repository (21). The FDA-approved anticancer drug set is available from the Developmental Therapeutics Program at https://dtp.cancer.gov/organization/dscb/obtaining/. […] The stock solutions were prepared in dimethyl sulfoxide (DMSO, Sigma-Aldrich, St. Louis, MO, cat. D2650), except for the platinum compounds which were prepared in saline (Quality Biological, Gaithersburg, MD, cat. 114-055-101), at 800-fold the tested concentration and stored at -70 degrees C prior to their use. All drugs and investigational agents were tested over a range starting from a high concentration at or near the clinical Cmax and decreasing in half-log increments. If the clinical Cmax for an agent had not been determined, the highest concentration tested was 10 microM, except for SN-38, which was tested at a high concentration of 1 microM.
Cell Culture. All cells were maintained in an incubator at 37 degrees C and 5% CO2 with 95% humidity. The PDC lines were cultured according to standard operating procedures established by the NCI PDMR (https://pdmr.cancer.gov). Table 3 of the manuscript, lists the cell lines along with the number of the three cell types plated to form the mct-spheroids and media for tumor cell growth. After thawing, all PDC lines, except 997537-175-T-J1-PDC and 415267-285-R-J2-PDC, were cultured in Matrigel-coated flasks prepared with a working solution of 1X Ham's F-12 nutrient mix, without supplementation (Thermo Fisher Scientific, cat. 11765054), 100 U/mL penicillin-streptomycin (Thermo Fisher Scientific, cat. 15140122), and 2.5% Matrigel (Corning Inc., Corning, NY, cat. 354248) for the first three passages. The two PDC lines 997537-175-T-J1-PDC and 415267-285-R-J2-PDC were cultured on uncoated flasks. The 857933-349-R-J2-PDC line was cultured in 6C/Colon 1B media containing advanced DMEM/F-12 (Thermo Fisher Scientific, cat. 12634028), 10 mM HEPES (Thermo Fisher Scientific, cat. 15630080), 1X GlutaMAX supplement (Thermo Fisher Scientific, cat. 35050061), 0.1 mg/mL primocin (InvivoGen, San Diego, CA, cat. ant-pm-2), 10% defined fetal bovine serum, heat inactivated (HyClone Laboratories Inc., Logan, UT, cat. SH30070.03HI), 50% L-WRN conditioned media (ATCC, cat. CRL-3276), 1.25 mM N-Acetyl-L-cysteine (Sigma-Aldrich, cat. A9165), 10 mM nicotinamide (Sigma-Aldrich, cat. N0636), 1X B-27 supplement (Thermo Fisher Scientific, cat. 17504044), 1X N-2 supplement (Thermo Fisher Scientific, cat. […]

pIC50: −log10 of the molar value. “And” between values parts separate entries of the source, which are not always exact repeats. Identical values can stand only once.
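Further: spheroids exposed to drugs for one week before readout.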
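Wherever viability, T/C is given: percent viability relative to DMSO vehicle control wells set as 100%.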

As for `CC(=O)O[C@H]1C(=O)[C@@]2(C)[C@H]([C@H](OC(=O)c3ccccc3)[C@]3(O)C[C@H](OC(=O)[C@H](O)[C@@H](NC(=O)c4ccccc4)c4ccccc4)C(C)=C1C3(C)C)[C@]1(OC(C)=O)CO[C@@H]1C[C@@H]2O` + Cc1cccc(N(C)C(=O)C2C(O)CCN2c2nc(C)cc(C(F)(F)F)c2C#N)c1, the pIC50 reads like this: (curve of first compound, second compound 0.0316 µM) 6.18; (curve of first compound, second compound 0.1 µM) below 5.52; (curve of first compound, second compound 0.316 µM) 6.10; (curve of first compound, second compound 1 µM) 5.62; (curve of first compound, second compound 3.16 µM) 5.89; (curve of first compound, second compound 10 µM) 6.09. The viability, T/C (second compound 0.0316 µM, first compound 0.00949 µM) was 88.1%; the viability, T/C (second compound 0.0316 µM, first compound 0.03 µM) was 62.9%; the viability, T/C (second compound 0.0316 µM, first compound 0.0949 µM) was 56.8%; the viability, T/C (second compound 0.0316 µM, first compound 0.3 µM) was 56.1%; the viability, T/C (second compound 0.0316 µM, first compound 0.949 µM) is 53.9%; the viability, T/C (second compound 0.0316 µM, first compound 3 µM) was 41.5%. In addition, the viability, T/C was 87.5% (second compound 0.1 µM, first compound 0.00949 µM); 65.8% (second compound 0.1 µM, first compound 0.03 µM); 62.1% (second compound 0.1 µM, first compound 0.0949 µM); 52.4% (second compound 0.1 µM, first compound 0.3 µM); 58.3% (second compound 0.1 µM, first compound 0.949 µM); 51.4% (second compound 0.1 µM, first compound 3 µM). Moreover, the viability, T/C is, setting by setting: (second compound 0.316 µM, first compound 0.00949 µM) 79.2%; (second compound 0.316 µM, first compound 0.03 µM) 77%; (second compound 0.316 µM, first compound 0.0949 µM) 66.8%; (second compound 0.316 µM, first compound 0.3 µM) 56.1%; (second compound 0.316 µM, first compound 0.949 µM) 50.5%; (second compound 0.316 µM, first compound 3 µM) 43.2%. In addition, the viability, T/C reads like this: (second compound 1 µM, first compound 0.00949 µM) 76.3%; (second compound 1 µM, first compound 0.03 µM) 68.6%; (second compound 1 µM, first compound 0.0949 µM) 61.7%; (second compound 1 µM, first compound 0.3 µM) 57.6%; (second compound 1 µM, first compound 0.949 µM) 67.2%; (second compound 1 µM, first compound 3 µM) 43.1%. Moreover, the viability, T/C (second compound 3.16 µM, first compound 0.00949 µM) was 70.6%; the viability, T/C (second compound 3.16 µM, first compound 0.03 µM) was 61%; the viability, T/C (second compound 3.16 µM, first compound 0.0949 µM) was 55.4%; the viability, T/C (second compound 3.16 µM, first compound 0.3 µM) was 55.4%; the viability, T/C (second compound 3.16 µM, first compound 0.949 µM) was 57%; the viability, T/C (second compound 3.16 µM, first compound 3 µM) is 43.8%. In addition, the viability, T/C by setting is: (second compound 10 µM, first compound 0.00949 µM) 72.8%; (second compound 10 µM, first compound 0.03 µM) 63.2%; (second compound 10 µM, first compound 0.0949 µM) 55.9%; (second compound 10 µM, first compound 0.3 µM) 57.5%; (second compound 10 µM, first compound 0.949 µM) 50.8%; (second compound 10 µM, first compound 3 µM) 44.2%.
For the compound `COc1ccc([C@@H](O)c2cc(-c3ncnc4cc(N5CCOCC5)ccc34)c(F)cc2Cl)nn1`, the viability, T/C (compound 0.0316 µM) is 89.7% and 92.5% and 103%; the viability, T/C (compound 0.1 µM) is 89.2% and 79.2% and 80.3%; the viability, T/C (compound 0.316 µM) is 58.8% and 72.4% and 64.8%; the viability, T/C (compound 1 µM) is 29.3% and 35.7% and 36.9%; the viability, T/C (compound 3.16 µM) is 13.2% and 18.7% and 16.1%; the viability, T/C (compound 10 µM) was 8.76% and 11.7% and 5.8%. Also, the pIC50 (curve of compound) is 6.33 and 6.20 and 6.22.
Turning to `C=CCn1c(=O)c2cnc(Nc3ccc(N4CCN(C)CC4)cc3)nc2n1-c1cccc(C(C)(C)O)n1`, the viability, T/C is, setting by setting: (compound 0.00316 µM) 85% and 93.8% and 95.4%; (compound 0.01 µM) 80.4% and 77.2% and 83.5%; (compound 0.0316 µM) 99.2% and 71.9% and 92.3%; (compound 0.1 µM) 95.8% and 78.3% and 77%; (compound 0.316 µM) 47.6% and 50.2% and 49%; (compound 1 µM) 36.5% and 43.9% and 48.2%. Moreover, where the note is “curve of compound”, the pIC50 is 6.53 and 6.27 and 6.52.
Turning to `CCc1c2c(nc3ccc(O)cc13)-c1cc3c(c(=O)n1C2)COC(=O)[C@]3(O)CC`, the viability, T/C is 65.4% and 62.4% and 71.3% (compound 0.00316 µM); 46.9% and 39.7% and 51.1% (compound 0.01 µM); 39% and 39.6% and 38.6% (compound 0.0316 µM); 24.9% and 26.6% and 21% (compound 0.1 µM); 10.9% and 16.3% and 8.99% (compound 0.316 µM); 4.17% and 12.3% and 5.58% (compound 1 µM). Further, under “curve of compound”, the pIC50 is 8.00 and 8.14 and 7.90.
Consider `COc1cccc(OCCCN)c1-c1cc(Nc2cnc(C#N)cn2)n[nH]1`, for which the viability, T/C runs as follows: (compound 0.00316 µM) 93.2% and 79.9% and 100%; (compound 0.01 µM) 77.4% and 82.9% and 82.8%; (compound 0.0316 µM) 60.4% and 55.2% and 58.4%; (compound 0.1 µM) 55.1% and 55.9% and 59.1%; (compound 0.316 µM) 52% and 40.5% and 39.7%; (compound 1 µM) 26.3% and 36.1% and 36.3%. Further, under “curve of compound”, the pIC50 is 6.82 and 6.97 and 6.89.
As for `CC1COCCN1c1cc(-c2ccnn2C)c2ccnc(-c3ccn[nH]3)c2n1` (configuration not stated), the viability, T/C is 83.5% and 103% and 85.4% (compound 0.0316 µM); 79.7% and 81.4% and 63.6% (compound 0.1 µM); 55.4% and 57.6% and 51.2% (compound 0.316 µM); 31.7% and 36.2% and 33% (compound 1 µM); 13.4% and 11.8% and 14.9% (compound 3.16 µM); 6.95% and 8.69% and 9.29% (compound 10 µM). For the same compound, the pIC50 (curve of compound) is 6.36 and 6.35 and 6.54.

The record behind these values is PubChem BioAssay AID1963826 (Molecular Pharmacology Branch, DTP, NCI, 2024).
